Test results as given in paper PMC9820531, “Porcine Relaxin but Not Serelaxin Shows Residual Bioactivity after In Vitro Simulated Intestinal Digestion—Clues for the Development of New Relaxin Peptide Agonists Suitable for Oral Delivery” (International Journal of Molecular Sciences, 2022).

Columns and labels:
[1] = target: T1, RXFP1 relaxin receptor (Homo sapiens, UniProt Q9HBX9); test: cAMP response by THP-1 cells to intact relaxins; assay type: cell-based; details: intact peptide 100 ng/mL, 15 min stimulation, IBMX 100 μM, forskolin 10^−4 M as maximum, chemiluminescent HitHunterXP cAMP II assay, triplicate points, two independent experiments
T1 construct: a marked, significant rise of cAMP in RXFP-1-expressing THP-1 cells; endogenous in cells; host or cells: THP-1 human monocytic cells (ECACC)
T1 sequence (Q9HBX9 1-757): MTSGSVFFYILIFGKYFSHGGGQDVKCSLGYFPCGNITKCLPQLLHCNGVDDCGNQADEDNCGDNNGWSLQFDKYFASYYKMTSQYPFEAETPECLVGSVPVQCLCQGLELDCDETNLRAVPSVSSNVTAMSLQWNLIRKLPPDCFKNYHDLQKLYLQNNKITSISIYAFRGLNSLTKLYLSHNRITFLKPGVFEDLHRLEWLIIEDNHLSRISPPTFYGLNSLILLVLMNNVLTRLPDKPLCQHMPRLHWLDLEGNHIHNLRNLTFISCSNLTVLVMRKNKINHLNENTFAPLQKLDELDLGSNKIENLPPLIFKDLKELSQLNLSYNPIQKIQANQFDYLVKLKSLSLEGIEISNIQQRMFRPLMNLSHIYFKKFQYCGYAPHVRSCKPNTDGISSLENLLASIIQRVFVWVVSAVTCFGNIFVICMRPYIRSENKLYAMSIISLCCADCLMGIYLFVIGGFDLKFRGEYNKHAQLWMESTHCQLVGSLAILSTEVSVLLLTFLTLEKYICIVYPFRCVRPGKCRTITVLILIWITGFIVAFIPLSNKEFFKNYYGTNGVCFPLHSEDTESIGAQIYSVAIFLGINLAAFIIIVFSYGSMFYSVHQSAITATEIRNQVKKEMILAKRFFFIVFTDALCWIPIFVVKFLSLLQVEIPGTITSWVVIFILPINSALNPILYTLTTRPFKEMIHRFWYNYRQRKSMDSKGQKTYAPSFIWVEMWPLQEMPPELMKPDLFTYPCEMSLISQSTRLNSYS
Method: Human monocytic THP-1 cells (European Collection of Cell Cultures ECACC, Salisbury, UK) were cultured in suspension in RPMI medium containing 10% fetal calf serum, 250 U/mL penicillin G and 250 μg/mL streptomycin in a 5% CO2 atmosphere at 37 °C. Aliquots containing 6 × 10^5 THP-1 cells in 1 mL PBS were placed in a 24-well plate, added with IBMX (100 μM) to prevent cAMP catabolism, and then incubated with intact serelaxin (100 ng/mL), pRLX (100 ng/mL) or equivalent solutions of their digestion by-products. According to previous studies, cAMP assay was carried out 15 min after addition of the stimuli, i.e., in the midst of the second, sustained cAMP surge upon RXFP1 stimulation. Measurements of cAMP were determined by the chemiluminescent HitHunterXP™ cAMP II assay (DiscoverX, Birmingham, UK). The standard curve was performed in duplicate, and the experimental points in triplicate. Since the standard curve was sigmoidal, nonlinear regression was used to extrapolate unknown experimental cAMP values, expressed as nmol/L, according to the manufacturer’s instructions. Two independent experiments were performed. For positive control, the adenylate cyclase activator forskolin (10^−4 M) was used. Finally, the values of cAMP in each experimental sample were normalized by the amount of proteins, measured by the micro-BCATM Protein Assay Kit (Pierce, IL, USA) method, and expressed as mg/mL.

[2] = target: T1, RXFP1 relaxin receptor; test: cAMP response by THP-1 cells to SIF digestion products; assay type: cell-based; details: SIF: pancreatin 500 μg/mL, CaCl2, pH 7, 37 °C, peptide 1.12 μM; digestion products tested at equivalent of 100 ng/mL on THP-1 cells, 15 min; read-out cAMP
Method: The effects of duodenal enzyme digestion on the noted serelaxin and pRLX preparations was carried out by addition of a simulated intestinal fluid (SIF), composed of a solution of pancreatin (500 μg/mL), CaCl2 0.75 M (0.1 v/v), pH adjusted to 7 adding dropwise an aqueous solution of NaOH 0.1 M to pRLX and serelaxin solutions. In particular: 0.5 mg/mL aqueous solution of pRLX (MW 5918, 0.084 mM) was added to SIF in a 50 mL Falcon, mixing in a 37 °C bath, to a final pRLX concentration 1.12 μM; 0.2 mL of this solution were sampled and quenched by pH adjusting (0.1 M HCl), at the following times: t = 0”/10”/20”/30”/60”/120”/600”/1800”. […]
Human monocytic THP-1 cells (European Collection of Cell Cultures ECACC, Salisbury, UK) were cultured in suspension in RPMI medium containing 10% fetal calf serum, 250 U/mL penicillin G and 250 μg/mL streptomycin in a 5% CO2 atmosphere at 37 °C. […] Measurements of cAMP were determined by the chemiluminescent HitHunterXP™ cAMP II assay (DiscoverX, Birmingham, UK). […] Since the standard curve was sigmoidal, nonlinear regression was used to extrapolate unknown experimental cAMP values, expressed as nmol/L, according to the manufacturer’s instructions. […] Finally, the values of cAMP in each experimental sample were normalized by the amount of proteins, measured by the micro-BCATM Protein Assay Kit (Pierce, IL, USA) method, and expressed as mg/mL.

[3] = set-up: method as in PMID 8257492; details: in vivo; cited from earlier work
[4] = system: acute heart failure patients; set-up: method as in PMID 31433919, PMID 31886953; details: IV infusion 30 μg/kg/day; cited from earlier work
[5] = system: RXFP-1 receptor; details: serelaxin versus pRLX, similar cellular models; cited from earlier work

## serelaxin
[1]
  intracellular cAMP increase as % of the maximal cAMP surge induced by forskolin: 88.6%
[2]
  SIF exposure time at which cAMP levels dropped down to levels of unstimulated control cells: 120 s
  SIF exposure time at which the decrease in cAMP production became fully manifest and statistically significant: 60 s
[3]
  half-life: about 2 h
[4]
  effects on length of hospitalization, occurrence of cardiovascular death, and disease relapses requiring re-hospitalization in comparison with placebo: no substantial effects
[5]
  affinity for the RXFP-1 receptor relative to the other relaxin: higher affinity
